# Reference: patent US7220721B1, “Exendin agonist peptides” (Amylin Pharmaceuticals, Inc., priority 1997, dated 2007)
# pEC50, pIC50: −log10 of the molar value.
# What was measured:
# cyclase (membranes) = test: Cyclase activation study (cAMP SPA immunoassay); type: biochemical; details: cAMP in supernatant after 20 minutes incubation at 37° C. of membranes and peptides
# Experimental: GLP-1[7–36]NH2 (GLP-1) was purchased from Bachem (Torrance, Calif.). All other peptides were prepared using synthesis methods such as those described therein. All chemicals were of the highest commercial grade. The cAMP SPA immunoassay was purchased from Amersham. The radioligands were purchased from New England Nuclear (Boston, Mass.). […] Cells were grown at 37° C. and 5% CO2/95% humidified air and medium was replaced every 2 to 3 days. Cells were grown to confluence then harvested and homogenized using on a Polytron homogenizer. Cell homogenates were stored frozen at −70° C. until used. Assay buffer contained 10 μM GTP, 0.75 mM ATP, 2.5 mM MgCl21 0.5 mM phosphocreatine, 12.5 U/ml creatine kinase, 0.4 mg/ml aprotinin, 1 μM IBMX in 50 mM HEPES, pH 7.4. Membranes and peptides were combined in […] of assay buffer in 96 well filter-bottom plates (Millipore Corp., Bedford, Mass.). […] Supernatant cAMP contents were quantitated by SPA immunoassay. […] The biological activity of a particular sample was expressed as an EC50 value, calculated as described above.
# C57BLKS/J-m-db mice = test: Determination of blood glucose levels in db/db mice; type: in vivo; details: percent decrease in plasma glucose from baseline one hour after subcutaneous injection of 1 μg
# [1] = target: GLP-1 receptor (on RINm5f membranes) (UniProt P32301)
# GLP-1 receptor (on RINm5f membranes), sequence (P32301 22-463 limits assumed): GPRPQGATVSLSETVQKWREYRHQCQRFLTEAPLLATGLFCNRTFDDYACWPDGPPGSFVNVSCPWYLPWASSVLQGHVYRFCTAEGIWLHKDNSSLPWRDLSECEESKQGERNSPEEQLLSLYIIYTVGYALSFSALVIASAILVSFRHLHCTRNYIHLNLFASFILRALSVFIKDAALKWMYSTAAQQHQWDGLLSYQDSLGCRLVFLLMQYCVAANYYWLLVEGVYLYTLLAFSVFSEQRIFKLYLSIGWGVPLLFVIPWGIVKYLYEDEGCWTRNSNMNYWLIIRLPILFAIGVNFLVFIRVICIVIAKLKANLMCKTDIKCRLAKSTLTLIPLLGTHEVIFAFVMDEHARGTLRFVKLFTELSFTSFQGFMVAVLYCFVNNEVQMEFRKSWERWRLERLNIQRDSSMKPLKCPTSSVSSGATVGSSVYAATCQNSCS
pEC50 (cyclase (membranes)),Compound,% drop in glucose (C57BLKS/J-m-db mice) [%],pIC50 [1]
< 5.00,CC[C@H](C)[C@H](NC(=O)[C@H](Cc1ccccc1)NC(=O)[C@H](CC(C)C)NC(=O)[C@H](CCCNC(=N)N)NC(=O)[C@@H](NC(=O)[C@H](C)NC(=O)[C@H](CCC(=O)O)NC(=O)[C@H](CCC(=O)O)NC(=O)[C@H](CCC(=O)O)NC(=O)[C@H](CC(C)C)NC(=O)[C@H](CCC(N)=O)NC(=O)[C@H](CCCCN)NC(=O)[C@H](CO)NC(=O)[C@H](CC(C)C)NC(=O)[C@H](C)NC(=O)[C@H](CO)NC(=O)[C@@H](NC(=O)[C@H](Cc1ccccc1)NC(=O)[C@@H](NC(=O)CNC(=O)[C@H](CCC(=O)O)NC(=O)CNC(=O)[C@@H](N)Cc1c[nH]cn1)[C@@H](C)O)[C@@H](C)O)C(C)C)C(=O)N[C@@H](CCC(=O)O)C(=O)N[C@@H](Cc1ccccc1)C(=O)N[C@@H](CC(C)C)C(=O)N[C@@H](CCCCN)C(=O)N[C@@H](CC(N)=O)C(N)=O [Compound 4],42,–
< 5.00,CC[C@H](C)[C@H](NC(=O)[C@H](Cc1ccccc1)NC(=O)[C@H](CC(C)C)NC(=O)[C@H](CCCNC(=N)N)NC(=O)[C@@H](NC(=O)[C@H](C)NC(=O)[C@H](CCC(=O)O)NC(=O)[C@H](CCC(=O)O)NC(=O)[C@H](CCC(=O)O)NC(=O)[C@H](CC(C)C)NC(=O)[C@H](CCC(N)=O)NC(=O)[C@H](CCCCN)NC(=O)[C@H](CO)NC(=O)[C@H](CC(C)C)NC(=O)[C@H](CC(=O)O)NC(=O)[C@H](CO)NC(=O)[C@@H](NC(=O)[C@H](Cc1ccccc1)NC(=O)[C@@H](NC(=O)[C@H](C)NC(=O)[C@H](CCC(=O)O)NC(=O)CNC(=O)[C@@H](N)Cc1c[nH]cn1)[C@@H](C)O)[C@@H](C)O)C(C)C)C(=O)N[C@@H](CCC(=O)O)C(=O)N[C@@H](Cc1ccccc1)C(=O)N[C@@H](CC(C)C)C(=O)N[C@@H](CCCCN)C(=O)N[C@@H](CC(N)=O)C(N)=O [Compound 3],32,–
< 6.00,CC[C@H](C)[C@H](NC(=O)[C@H](Cc1ccccc1)NC(=O)[C@H](CC(C)C)NC(=O)[C@H](CCCNC(=N)N)NC(=O)[C@@H](NC(=O)[C@H](C)NC(=O)[C@H](CCC(=O)O)NC(=O)[C@H](CCC(=O)O)NC(=O)[C@H](CCC(=O)O)NC(=O)[C@H](CC(C)C)NC(=O)[C@H](CCC(N)=O)NC(=O)[C@H](CCCCN)NC(=O)[C@H](CO)NC(=O)[C@H](CC(C)C)NC(=O)[C@H](CC(=O)O)NC(=O)[C@H](CO)NC(=O)[C@@H](NC(=O)[C@H](Cc1ccccc1)NC(=O)[C@@H](NC(=O)CNC(=O)[C@H](CCC(=O)O)NC(=O)CNC(=O)[C@H](C)N)[C@@H](C)O)[C@@H](C)O)C(C)C)C(=O)N[C@@H](CCC(=O)O)C(=O)N[C@@H](Cc1ccccc1)C(=O)N[C@@H](CC(C)C)C(=O)N[C@@H](CCCCN)C(=O)N[C@@H](CC(N)=O)C(N)=O [Compound 1],40,–
< 5.00,CC[C@H](C)[C@H](NC(=O)[C@H](Cc1ccccc1)NC(=O)[C@H](CC(C)C)NC(=O)[C@H](CCCNC(=N)N)NC(=O)[C@@H](NC(=O)[C@H](C)NC(=O)[C@H](CCC(=O)O)NC(=O)[C@H](CCC(=O)O)NC(=O)[C@H](CCC(=O)O)NC(=O)[C@H](CC(C)C)NC(=O)[C@H](CCC(N)=O)NC(=O)[C@H](CCCCN)NC(=O)[C@H](CO)NC(=O)[C@H](CC(C)C)NC(=O)[C@H](CC(=O)O)NC(=O)[C@H](CO)NC(=O)[C@@H](NC(=O)[C@H](Cc1ccccc1)NC(=O)[C@@H](NC(=O)CNC(=O)[C@H](C)NC(=O)CNC(=O)[C@@H](N)Cc1c[nH]cn1)[C@@H](C)O)[C@@H](C)O)C(C)C)C(=O)N[C@@H](CCC(=O)O)C(=O)N[C@@H](Cc1ccccc1)C(=O)N[C@@H](CC(C)C)C(=O)N[C@@H](CCCCN)C(=O)N[C@@H](CC(N)=O)C(N)=O [Compound 2],41,–
–,Exendin-4 [SEQ. ID. NO. 2] (peptide),–,9.15
